Experimental data: paper PMC4792926, “G9a-mediated methylation of ERα links the PHF20/MOF histone acetyltransferase complex to hormonal gene expression” (Nature Communications, 2016)
Ends that are not written are not given here.

Legend:
[1] = tested on: H4K16ac on ERα target gene promoters; test: Histone H4K16ac ChIP-qPCR in MCF-7 cells; format: cell-based, human
Protocol: (§1) Human MCF-7, T-47D, U2OS and HEK293T cells (ATCC) were cultured in DMEM (Cellgro) supplemented with 10% fetal bovine serum (FBS, Sigma). For G9a inhibitor treatment, BIX-01294 (Sigma) was added to the medium, at the indicated concentrations, 24 h before the cells were collected. For shRNA knockdown, 293T cells were co-transfected with pMD2.G and pPAX2 (Addgene) together with pLKO-shRNA constructs or a non-targeting pLKO-shRNA (pLKO-shCtrl). Viral supernatants were harvested after 48 h. For infections, MCF-7 or T-47D cells were incubated with viral supernatants in the presence of 8 μg ml^−1 polybrene. After 48 h, puromycin (2 μg ml^−1) was added to the DMEM. Cells were grown, with selection for 5–7 days to select for stable knockdown cells before oestrogen treatment. For oestrogen treatment, cells were starved in phenol red-free DMEM supplemented with 10% charcoal-stripped FBS (Sigma) for 3–4 days, and 10 nM 17β-estradiol (Sigma) or ethanol (vehicle) were added to the medium (3 or 6 h for gene expression studies, and 15 and 45 min for ChIP experiments) before the cells were collected.
(§2) ChIP analysis was performed essentially as described previously. Briefly, cells were crosslinked with 1% formaldehyde for 10 min at room temperature, and the reaction was stopped with 125 mM glycine. Nuclei were isolated by resuspending the cells in swelling buffer containing 5 mM PIPES, pH 8.0, 85 mM KCl, 1% NP-40 and complete protease inhibitors for 20 min at 4 °C. The isolated nuclei were resuspended in nuclei lysis buffer (50 mM Tris, pH 8.0, 10 mM EDTA, 1% SDS) and sonicated using a Bioruptor Sonicator (Diagenode). Samples were immunoprecipitated with 2–4 μg of the appropriate antibodies overnight at 4 °C. Immunoprecipitates were washed twice with dialysis buffer (50 mM Tris pH 8.0, 2 mM EDTA, 0.2% Sarkosyl) and four times with IP wash buffer (100 mM Tris, pH 8.0, 500 mM LiCl, 1% NP-40 and 1% deoxycholic acid sodium salt). After reverse crosslinking was performed, the DNA was eluted and purified using a PCR purification kit (Qiagene). The primer sequences used for ChIP analyses are listed in Supplementary Table 4.

[2] = tested on: ERα on GREB1 and PR promoters; test: ERα ChIP-qPCR in MCF-7 cells; format: cell-based, human; conditions: E2, 15 and 45 min
Protocol: as §1
as §2, with “The primer sequences used for ChIP analyses are listed in Supplementary Table 4.” left out

[3] = tested on: ERα target genes (GREB1, PR, TFF1); test: qPCR of E2-induced ERα target gene expression in MCF-7 cells; format: cell-based, human; conditions: for fold induction of GREB1, PR and TFF1: control (shCtrl) MCF-7, relative to untreated cells
Protocol: as §1
(§3) Reverse transcription and real-time PCR were performed as described previously. mRNA was prepared using the RNeasy Plus kit (Qiagen) and reverse transcribed using the First Strand Synthesis kit (Invitrogen). Quantitative real-time RT–PCR (qPCR) was performed on an ABI 7500-FAST Sequence Detection System using the Power SYBR Green PCR Master Mix (Applied Biosystems). Gene expression was calculated following normalization to GAPDH levels using the comparative Ct (cycle threshold) method and is shown as ‘Fold' relative to the expression of each gene in the control cells without E2 treatment that was arbitrarily set as ‘1'. The primer sequences used for RT–PCR are listed in Supplementary Table 5.

ERαK235me2 = test: Immunofluorescence of ERαK235me2 in MCF-7 cells; format: cell-based, human; conditions: 10 nM 17β-estradiol, 45 min; E2-deprived MCF-7
Protocol: MCF-7 cells were E2-depleted for 3 days and treated with 10 nM 17β-estradiol or ethanol for 45 min. Cells were then fixed in 4% formaldehyde, washed and permeabilized in 0.5% Triton X-100 on ice for 10 min. Cells were then blocked in 3% BSA, incubated with primary antibodies in 3% BSA for 2 h, washed, and probed with fluorescein-conjugated secondary antibodies in 3% BSA for 1 h. Cells on the slide were then washed, covered with mounting medium (with DAPI) and observed using an Olympus confocal microscope FluoView FV1000.
(d) ERαK235, but not K303, is required for the coactivator function of G9a in an estrogen response element- (ERE) driven luciferase assay. U2OS cells were cotransfected with G9a, NCOA2 and ERα (WT, K235R, or K303R) together with an ERE-Firefly luciferase and a Renilla luciferase, and the luciferase activity was determined 24 hrs after E2 treatment.
(e) G9a has a catalytic activity-dependent and independent coactivator activity of ERα. U2OS cells were cotransfected with ERα, NCOA2 and […] (WT or H1113K) together with an ERE-Firefly luciferase and a Renilla luciferase, and the luciferase activity was determined as described in the Method section.
(f) Both the E2-dependent and E2-independent ERα coactivator functions of G9a require the ERαK235 residue. […]

MCF-7 cells = test: RNA-seq in MCF-7 cells ±E2; format: cell-based, human; conditions: 10 nM E2, 3 h
Protocol: as §1, with “For oestrogen treatment, cells were starved in phenol red-free DMEM supplemented with 10% charcoal-stripped FBS (Sigma) for 3–4 days, and 10 nM 17β-estradiol (Sigma) or ethanol (vehicle) were added to the medium (3 or 6 h for gene expression studies, and 15 and 45 min for ChIP experiments) before the cells were collected.” left out
RNA-seq samples were sequenced using the Illumina Hiseq 2000, and raw reads were mapped to the human reference genome (hg19) and transcriptome using the RNA-seq unified mapper. Read counts for each transcript were calculated using HTseq v0.6.1 using default parameters. […] For the PHF20 knockdown data set, the common dispersion and tag wise dispersion were calculated using the edgeR ‘estimateCommonDisp' and ‘estimateTagwise-Disp' functions, respectively. […]

[4] = tested on: ERα target genes (GREB1, PR, TFF1); test: qPCR of E2-induced ERα target gene expression in T-47D cells; format: cell-based, human; conditions: 10 nM E2, 3 or 6 h; G9a-depleted T-47D
Protocol: as §1, with “For oestrogen treatment, cells were starved in phenol red-free DMEM supplemented with 10% charcoal-stripped FBS (Sigma) for 3–4 days, and 10 nM 17β-estradiol (Sigma) or ethanol (vehicle) were added to the medium (3 or 6 h for gene expression studies, and 15 and 45 min for ChIP experiments) before the cells were collected.” left out
as §3, with “The primer sequences used for RT–PCR are listed in Supplementary Table 5.” left out

PHF20 Tudor [5] = test: 1H,15N HSQC NMR titration of PHF20 Tudor; format: binding, human
Protocol: (§4) The pGEX constructs encoding human G9a, ERα and ERα fragments including AF1 (aa 1–190), DBD (aa 175–250), hinge (aa 251–310), DBD+hinge (aa 175–310), LBD (aa 305–596) and the second Tudor domain of PHF20 (aa 58–148) were expressed in E. coli Rosetta (DE3) pLysS cells. After induction with IPTG (0.5 mM) for 16–18 h at 18 °C, cells were collected by centrifugation at 5,000g, lysed by sonication and purified using Glutathione Sepharose 4B beads (GE Healthcare). For the NMR titration assays, PHF20 Tudor was expressed in the ^15NH4Cl-supplemented (Sigma) minimal media, and the GST tag was cleaved with PreScission protease, and the cleaved protein was concentrated using Millipore concentrators (Millipore).
The ^1H,^15N HSQC spectra of 0.2 mM uniformly ^15N-labelled PHF20 Tudor (in 25 mM Tris-HCl, pH 7.5 buffer, 150 mM NaCl, 5 mM dithiothreitol and ∼8% D2O) were collected at 298 K on a Varian INOVA 600 MHz spectrometer. Binding was monitored by titrating unmodified ERα and ERαK235me2 peptides (aa 228–239) against the PHF20 Tudor domain. NMR data were processed and analysed with NMRPipe and NMRDraw as previously described. NMR assignments for PHF20 Tudor were taken from the Biological Magnetic Resonance Data Bank (BMRB 17673)[31].

PHF20 Tudor [6] = test: Peptide pull-down with GST-PHF20 Tudor; format: binding, human; conditions: 1 μg biotinylated peptide, 1 μg GST-PHF20 Tudor, 50 mM Tris-HCl pH 7.5, 300 mM NaCl, 0.1% NP-40, overnight
Protocol: as §4
(§5) For peptide pulldown assays, 1 μg of biotinylated histone and ERα peptides with or without methylation were incubated with 1 μg GST-PHF20 Tudor in binding buffer (50 mM Tris-HCl, pH 7.5, 300 mM NaCl, 0.1% NP-40 and 1 mM PMSF) for overnight. Streptavidin beads (GE Healthcare) were added into the mixture and incubated for 1 h with rotation. The beads were then washed three times, and analysed by SDS−PAGE and western blotting. For the protein domain array, the CADOR 5.0 protein domain array was probed with biotinylated ER peptides as described previously. The protein domains spotted on the CADOR 5.0 array are listed in the Supplementary Fig. 5.

[7] = tested on: PHF20 Tudor W97A and Y103A mutants; test: Peptide pull-down with PHF20 Tudor mutants; format: binding, human; conditions: W97A and Y103A mutants of PHF20 Tudor
Protocol: as §4, §5

[8] = tested on: PHF20/PHF20L Tudor domains; test: Chromatin-associated domain array (CADOR 5.0), PHF20/PHF20L Tudors; format: binding; conditions: biotinylated peptide on CADOR 5.0; K235 methylation-dependent
Protocol: as §5, with “Fig. 5. […]” for “Fig. 5.”
(§6) Recombinat Proteins Construct Sources a - Cheryl Arrowsmith d - Jiemin W ong g - Albert Jeltsch j - Judd Rice n - Alla Grishok b - Subhashini Sadasivem e - Or Gozani h - Yi Zhang k - Marc Timmers o - Olli Silvennoinen c - Jocelyn Coté f - Thomas Jenuwein i - Adrian Bird l - Michelle Barton p - Logan Donaldson […]
(§7) Supplementary Figure 5. Domain layout of the Chromatin-Associated Domain Array […]
(§8) (1 picture or pasted object on this page, not shown here)

53BP1 Tudor = test: Chromatin-associated domain array (CADOR 5.0), 53BP1 Tudor; format: binding; conditions: biotinylated peptide on CADOR 5.0; K235 methylation-dependent
Protocol: as §5, with “Fig. 5. […]” for “Fig. 5.”
as §6, §7, §8

S. pombe SPF30 Tudor = test: Chromatin-associated domain array (CADOR 5.0), SPF30 Tudor; format: binding; conditions: biotinylated peptide on CADOR 5.0; K235 methylation-dependent
Protocol: as §5, with “Fig. 5. […]” for “Fig. 5.”
as §6, §7, §8

With C[C@]12CC[C@@H]3c4ccc(O)cc4CC[C@H]3[C@@H]1CC[C@@H]2O [E2, 17β-estradiol] the “E2-dependent H4K16ac and ERα on GREB1 and PR promoters (H4K16ac)” value ([1]; E2, 15 and 45 min, G9a-depleted MCF-7) was “markedly reduced”, the “E2-dependent increase of H4K16ac on GREB1 and PR promoters” value ([1]; E2, 15 and 45 min, PHF20-depleted MCF-7) was “greatly diminished” and the “H4K16ac levels on GREB1 and PR promoters” value ([1]; E2, 15 and 45 min, control MCF-7) was “dramatic increase in H4K16ac levels”. The “H4K16ac on genes not regulated by PHF20” value ([1]; E2, MCF-7) was “no apparent H4K16ac signals were detected”, the “levels of ERα on GREB1 and PR promoters” value ([2]; G9a-depleted MCF-7) was “markedly reduced” and the “ERα occupancy on the promoters of GREB1 and PR” value ([2]; PHF20 knockdown MCF-7) was “no or minimal ERα occupancy was detected”. The “ERα on the promoters of GREB1 and PR” value ([2]; control MCF-7) was “E2-dependent increase of ERα on the promoters of GREB1 and PR”, the “E2-induced activation of GREB1 and PR on PHF20 depletion” value ([3]; 10 nM E2, 3 or 6 h, PHF20 knockdown MCF-7) was “drastically decreased” and the “fold induction of GREB1, PR and TFF1” value ([3]; 10 nM E2, 3 h) was roughly 4 fold. For the same compound, the “fold induction of GREB1, PR and TFF1” value ([3]; 10 nM E2, 6 h) was roughly 6 fold, the ERαK235me2 level (ERαK235me2) was “increased upon E2 stimulation” and the “number of E2-activated genes” value (MCF-7 cells) was 774 genes. The “E2-induced gene activation on G9a depletion” value [4] was “drastically decreased”.

“ERαK235me2 peptide: ERα peptide dimethylated at K235; aa 228–239 in NMR titrations, biotinylated in pull-downs (TIDKNRRK(Me2)SCQA; also: biotinylated in pull-downs, end not given here; UniProt P03372 228-239, looked up, fragment)” was tested, and the “chemical shift changes of PHF20 Tudor” value (PHF20 Tudor [5]; 0.2 mM 15N-labelled PHF20 Tudor, 25 mM Tris-HCl pH 7.5, 150 mM NaCl, 298 K, 600 MHz) was “large chemical shift changes”, the “backbone amide resonances A95, W97, Y103, A105, V118, F120, D122-Q126 of PHF20 Tudor” value (PHF20 Tudor [5]; HSQC titration, 0.2 mM PHF20 Tudor, pH 7.5, 298 K) was “significant shifting and broadening” and the “interaction with PHF20 Tudor (pull-down)” value (PHF20 Tudor [6]) was “strong interaction”. The “binding to PHF20 Tudor W97/Y103 mutants (pull-down)” value [7] was “abolished the binding”.

For “ERα peptide (aa 227–244) bearing dimethylated K235: ERα peptide (aa 227–244) bearing dimethylated K235, biotinylated, used to probe the CADOR array (CTIDKNRRK(Me2)SCQACRLRK; cysteine pairing not given here; also: biotin, end not given here)”, the “recognition by PHF20/PHF20L Tudor” value [8] was “recognized the ERα peptide in a K235 methylation-dependent manner”, the “recognition by 53BP1 Tudor” value (53BP1 Tudor) was “recognized the ERα peptide in a K235 methylation-dependent manner” and the “recognition by S. pombe SPF30 Tudor” value (S. pombe SPF30 Tudor) was “recognized the ERα peptide in a K235 methylation-dependent manner”.
